This note sets out measurements from article PMC6017830, “Furan- and Thiophene-2-Carbonyl Amino Acid Derivatives Activate Hypoxia-Inducible Factor via Inhibition of Factor Inhibiting Hypoxia-Inducible Factor-1” (Molecules : A Journal of Synthetic Chemistry and Natural …, 2018).

In experiment [1] the test system is HIF-HRE transcriptional activity in SKN:HRE-MLuc cells (reflects FIH-1 inhibition). Kind of experiment: HIF activity under hypoxia, HRE-MLuc luciferase reporter assay. It counts as cell-based, human. Conditions: for activation at 100 µM / minimal effective concentration: Homo sapiens; for activation at 100 µM: read-out: 100 μM Activity (RLU intensity at 100 μM stimulation compared with the positive control DMOG); for minimal effective concentration: doses 100, 25, 6.3, 1.6 μM, DMOG 100 μM as positive control, read-out: 25% Activity (lower dose limit showing 25% of the RLU intensity of the positive control DMOG). How it is done: To evaluate HIF transactivation following FIH-1 inhibition […], we employed a luciferase reporter assay system in the human neuroblastoma cell line SK-N-BE(2)c. […] Hereafter these HRE reporter cells were designated SKN:HRE-MLuc cells.
SKN:HRE-MLuc (4 × 10^4) were incubated for 24 h on a 96 well culture plate. The medium was replaced with complete media and the test compounds (100, 25, 6.3 and 1.6 μM). DMSO (0.1%) was used as a vehicle control, DMOG (100 μM) and FG4592 (100 μM) were used as a PHDs or FIH-1 inhibitor. The cells were incubated for 24 h under a humidified atmosphere of 5% CO2 and 3% O2 at 37 °C. After incubation, the MLuc activity in culture media was measured with luciferase substrate (Takara, Shiga, Japan) by LB960 luminometer (Berthold, Wildbad, Germany). The HIF activity was calculated as the MLuc intensity, based on the vehicle and positive controls. The lower limit dose out of 100 μM, 25 μM, 6.3 μM, 1.6 μM was listed in Table 1 and Table 2, where 25% RLU intensity was measured using DMOG as a positive control.

The subject of the next experiment is SKN:HRE-MLuc cells. Kind of experiment: MTS assay (cellular toxicity). Conditions: MTS assay. It counts as cell-based, human. From the text: Next, we evaluated the activation of HIF by furan- and thiophene-2-carbonyl amino acid derivatives using the evaluation methods described above. Simultaneously, we investigated cellular toxicity for those derivatives with a 3-(4,5-dimethylthiazol-2-yl)-5-(3-carboxymethoxyphenyl)-2-(4-sulfophenyl)-2H-tetrazolium (MTS) assay. To indicate cellular membrane permeability, the partition coefficients, which are frequently represented by calculated logP (clogP) are listed in Table 1 and Table 2.
Cellular toxicity was measured using the CellTiter 96® Aqueous One Solution Cell Proliferation Assay kit (Promega, Madison, WI, USA). The cells were stimulated with each compound and treated with the CellTiter solution. After incubation for 3 h, the absorbance of the solutions at 492 nm was measured by Multiskan FC (Thermo Fisher Scientific, Waltham, MS, USA). As a negative control, wells with culture media were used. Wells treated with DMSO (0.1%) were used as a positive control. The IC50 values were determined using these controls.
(Formazan colour is commonly taken as a measure of viable cells.)

The mark [2] stands for this setting: 100 μM, SKN:HRE-MLuc cells, 3% O2, 24 h.
Where [3] appears, read: SKN:HRE-MLuc cells, 3% O2, 24 h.

Some results are limits rather than exact numbers.

As a reminder, the IC50 is the point on the concentration scale where inhibition reaches its midpoint. A lower IC50 goes with greater potency. On to `COC(=O)[C@H](C)NC(=O)c1ccc(-c2ccc(Oc3ccccc3)cc2)s1` [Compound 34, (S)-Methyl (5-(4-phenoxyphenyl)thiophene-2-carbonyl)alaninate], for which the activation at 100 µM in experiment [1] (setting [2]) came to 0%. Moreover, the IC50 in the experiment with SKN:HRE-MLuc cells (Homo sapiens) was above 100 µM.

Turning to `C[C@H](NC(=O)c1ccc(-c2ccccc2)s1)C(=O)O` [Compound 21, (S)-(5-Phenylthiophene-2-carbonyl)alanine], the activation at 100 µM in experiment [1] (setting [2]) stood at 0%. This compound returned an IC50 with SKN:HRE-MLuc cells (Homo sapiens) above 100 µM.

`COC(=O)[C@H](Cc1c[nH]c2ccccc12)NC(=O)c1ccc(-c2ccccc2)s1` [Compound 25, (S)-Methyl (5-phenylthiophene-2-carbonyl)tryptophanate]: in experiment [1] (setting [2]), the activation at 100 µM is 0%. Further, in the experiment with SKN:HRE-MLuc cells (Homo sapiens), the IC50 was above 100 µM.

Take `CCOC(=O)[C@H](C)NC(=O)c1ccc(-c2ccccc2)s1` [Compound 22, (S)-Ethyl (5-phenylthiophene-2-carbonyl)alaninate]: in experiment [1] (setting [2]), the activation at 100 µM is 16%. Moreover, the half-inhibitory concentration (IC50) in the experiment on SKN:HRE-MLuc cells (Homo sapiens) is above 100 µM.

With `CCOC(=O)[C@H](Cc1c[nH]c2ccccc12)NC(=O)c1ccc(C)s1` [Compound 17, (S)-Ethyl (5-methylthiophene-2-carbonyl)tryptophanate], the activation at 100 µM in experiment [1] (setting [2]) was determined as 49%. In addition, the minimal effective concentration in experiment [1] (setting [3]) amounted to 100 µM. For the same compound, the IC50 with SKN:HRE-MLuc cells (Homo sapiens) is above 100 µM.

For the compound `CCOC(=O)[C@H](C)NC(=O)c1cc2ccccc2s1` [Compound 40, (S)-Ethyl (benzothiophene-2-carbonyl)alaninate], the activation at 100 µM in experiment [1] (setting [2]) came out at 0%. For the same compound, the IC50 in the experiment on SKN:HRE-MLuc cells (Homo sapiens) was above 100 µM.

`COC(=O)CNC(=O)c1cc2ccccc2s1` [Compound 39, Methyl (benzothiophene-2-carbonyl)glycinate]: in experiment [1] (setting [2]), the activation at 100 µM is 13%. In the experiment with SKN:HRE-MLuc cells (Homo sapiens), this compound had an IC50 above 100 µM.

As for `COC(=O)[C@H](Cc1c[nH]c2ccccc12)NC(=O)c1ccc(-c2ccc(Oc3ccccc3)cc2)s1` [Compound 36, (S)-Methyl (5-(4-phenoxyphenyl)thiophene-2-carbonyl)tryptophanate], in experiment [1] (setting [2]), the activation at 100 µM was 0%. This compound showed an IC50 in the experiment on SKN:HRE-MLuc cells (Homo sapiens) above 100 µM.

In the case of `Cc1ccc(C(=O)NCC(=O)O)s1` [Compound 11, (5-Methylthiophene-2-carbonyl)glycine], the activation at 100 µM in experiment [1] (setting [2]) came to 23%. Besides, in experiment [1] (setting [3]), the minimal effective concentration was found to be 25 µM. In the experiment with SKN:HRE-MLuc cells (Homo sapiens), the IC50 is above 100 µM.

For `COC(=O)[C@@H](Cc1ccccc1)NC(=O)c1ccc(C)o1` [Compound 8, (R)-Methyl (5-methylfuran-2-carbonyl)phenylalaninate], in experiment [1] (setting [2]), the activation at 100 µM was 2%. Further, the IC50 in the experiment with SKN:HRE-MLuc cells (Homo sapiens) was above 100 µM.

As for “(R)-Ethyl (benzothiophene-2-carbonyl)phenylalaninate [Compound 42]”, the “100 μM Activity (RLU intensity at 100 μM stimulation compared with the positive control DMOG)” value in experiment [1] (setting [2]) is given as 0%. In the experiment on SKN:HRE-MLuc cells, this compound had an IC50 above 100 µM.

Regarding `COC(=O)CNC(=O)c1cccs1` [Compound 2, Methyl (thiophene-2-carbonyl)glycinate], in experiment [1] (setting [2]), the activation at 100 µM stood at 0%. For the same compound, in the experiment on SKN:HRE-MLuc cells (Homo sapiens), the IC50 was above 100 µM.

For the compound `COC(=O)[C@@H](Cc1c[nH]c2ccccc12)NC(=O)c1cccs1` [Compound 6, (R)-Methyl (thiophene-2-carbonyl)tryptophanate], in experiment [1] (setting [2]), the activation at 100 µM is 0%. The IC50 in the experiment with SKN:HRE-MLuc cells (Homo sapiens) is above 100 µM.

In the case of `CCOC(=O)[C@H](Cc1ccccc1)NC(=O)c1cc2ccccc2o1` [Compound 37, (S)-Ethyl (benzofuran-2-carbonyl)phenylalaninate], the activation at 100 µM in experiment [1] (setting [2]) was 0%. The same compound came in with an IC50 in the experiment with SKN:HRE-MLuc cells (Homo sapiens) above 100 µM.

In the case of `COC(=O)[C@@H](Cc1c[nH]c2ccccc12)NC(=O)c1ccco1` [Compound 4, (R)-Methyl (furan-2-carbonyl)tryptophanate], the activation at 100 µM in experiment [1] (setting [2]) came to 0%. In addition, the IC50 in the experiment with SKN:HRE-MLuc cells (Homo sapiens) was above 100 µM.

For the compound `COC(=O)[C@H](Cc1c[nH]c2ccccc12)NC(=O)c1cccs1` [Compound 5, (S)-Methyl (thiophene-2-carbonyl)tryptophanate], the activation at 100 µM in experiment [1] (setting [2]) stood at 0%. The IC50 in the experiment with SKN:HRE-MLuc cells (Homo sapiens) was above 100 µM.

`COC(=O)[C@H](Cc1ccc(O)cc1)NC(=O)c1cc2ccccc2s1` [Compound 44, (S)-Methyl (benzothiophene-2-carbonyl)tyrosinate]: in experiment [1] (setting [2]), the activation at 100 µM was 0%. The compound further yielded an IC50 with SKN:HRE-MLuc cells (Homo sapiens) above 100 µM.

For the compound `O=C(N[C@@H](Cc1ccccc1)C(=O)O)c1ccc(-c2ccccc2)o1` [Compound 19, (S)-(5-Phenylfuran-2-carbonyl)phenylalanine], the activation at 100 µM in experiment [1] (setting [2]) came to 0%. Also, the IC50 with SKN:HRE-MLuc cells (Homo sapiens) was above 100 µM.

Take `O=C(N[C@@H](Cc1ccccc1)C(=O)O)c1ccc(-c2ccccc2)s1` [Compound 23, (S)-(5-Phenylthiophene-2-carbonyl)phenylalanine]: the activation at 100 µM in experiment [1] (setting [2]) was determined as 0%. The compound also showed an IC50 with SKN:HRE-MLuc cells (Homo sapiens) above 100 µM.

Turning to `COC(=O)[C@H](Cc1ccccc1)NC(=O)c1ccc(-c2ccccc2)o1` [Compound 20, (S)-Methyl (5-phenylfuran-2-carbonyl)phenylalaninate], the activation at 100 µM in experiment [1] (setting [2]) stood at 10%. The same compound yielded an IC50 with SKN:HRE-MLuc cells (Homo sapiens) above 100 µM.

Consider `CCOC(=O)[C@H](Cc1ccccc1)NC(=O)c1ccc(C)s1` [Compound 15, (S)-Ethyl (5-methylthiophene-2-carbonyl)phenylalaninate], for which, in experiment [1] (setting [2]), the activation at 100 µM is 12%. Moreover, in experiment [1] (setting [3]), the minimal effective concentration amounted to 25 µM. In addition, the IC50 in the experiment on SKN:HRE-MLuc cells (Homo sapiens) was above 100 µM.

As for `COC(=O)[C@H](Cc1ccccc1)NC(=O)c1ccc(-c2ccccc2)s1` [Compound 24, (S)-Methyl (5-phenylthiophene-2-carbonyl)phenylalaninate], the activation at 100 µM in experiment [1] (setting [2]) was 7%. This compound also came in with an IC50 in the experiment with SKN:HRE-MLuc cells (Homo sapiens) above 100 µM.

For the compound `CCOC(=O)[C@H](C)NC(=O)c1ccc(C)s1` [Compound 13, (S)-Ethyl (5-methylthiophene-2-carbonyl)alaninate], the activation at 100 µM in experiment [1] (setting [2]) came to 0%. Also, the IC50 in the experiment with SKN:HRE-MLuc cells (Homo sapiens) is above 100 µM.

As for `COC(=O)C(=O)N[C@H](Cc1ccccc1)C(=O)OC` [DM-NOFD, dimethyl N-oxalyl-D-phenylalanine, reference compound], the “HIF activity (HRE-MLuc reporter), result in words” value in experiment [1] (hypoxic conditions (3% O2), 24 h, reference compounds at 100 μM) is given as “significantly enhanced HIF activity”.

Consider `CCOC(=O)[C@H](Cc1ccccc1)NC(=O)c1ccc(-c2ccc(Oc3ccccc3)cc2)s1` [Compound 35, (S)-Ethyl (5-(4-phenoxyphenyl)thiophene-2-carbonyl)phenylalaninate], for which the activation at 100 µM in experiment [1] (setting [2]) was 0%. For the same compound, the IC50 in the experiment on SKN:HRE-MLuc cells (Homo sapiens) was above 100 µM.

For `COC(=O)[C@H](Cc1c[nH]c2ccccc12)NC(=O)c1ccco1` [Compound 3, (S)-Methyl (furan-2-carbonyl)tryptophanate], the activation at 100 µM in experiment [1] (setting [2]) turned out to be 0%. Also, the IC50 in the experiment with SKN:HRE-MLuc cells (Homo sapiens) is above 100 µM.

For `COC(=O)CNC(=O)c1ccc(-c2ccc(Oc3ccccc3)cc2)s1` [Compound 33, Methyl (5-(4-phenoxyphenyl)thiophene-2-carbonyl)glycinate], the activation at 100 µM in experiment [1] (setting [2]) was found to be 0%. For the same compound, the IC50 in the experiment on SKN:HRE-MLuc cells (Homo sapiens) was above 100 µM.

As to `COC(=O)[C@H](Cc1c[nH]c2ccccc12)NC(=O)c1cc2ccccc2s1` [Compound 43, (S)-Methyl (benzothiophene-2-carbonyl)tryptophanate], the activation at 100 µM in experiment [1] (setting [2]) came out at 0%. For the same compound, in the experiment on SKN:HRE-MLuc cells (Homo sapiens), the IC50 is above 100 µM.

For the compound `CCOC(=O)[C@@H](Cc1c[nH]c2ccccc12)NC(=O)c1ccc(C)s1` [Compound 18, (R)-Ethyl (5-methylthiophene-2-carbonyl)tryptophanate], in experiment [1] (setting [2]), the activation at 100 µM was 52%. Moreover, the minimal effective concentration in experiment [1] (setting [3]) was determined as 100 µM. This compound displayed an IC50 in the experiment on SKN:HRE-MLuc cells (Homo sapiens) above 100 µM.
